Test results: patent US20230310388A1, “Methods and Compositions for Treating Fungal Infections” (Neoculi Pty Ltd, priority 2020, published 2023)
In brackets after ≈: the same amount, converted by molar mass. Several values for one entry are separate records, joined by “and”; a condition that tells them apart may be missing. Equal values may be shown once.

Columns and labels:
Format in all cases: cell-based
[1] = system: Candida albicans ATCC14053; test: Broth micro-dilution screen at 16 μg/mL and MIC (Example 9); conditions: for Screen at 16 μg/mL: single concentration 16 μg/mL, Growth or No growth of C. albicans ATCC14053; for MIC: C. albicans ATCC14053, test range 0.25-64 μg/mL, duplicate
Description: The antifungal activity of 201 NCL analogs against Candida albicans ATCC14053 in vitro was investigated. A broth micro-dilution method was used, according to CLSI guidelines as described. NCL analogs were dissolved in DMSO and originally screened at a single concentration of 16 μg/mL.

Candida albicans = test: CLSI broth microdilution MIC (Example 4)
Description: (§1) Antifungal minimum inhibitory concentration (MIC) testing was undertaken as recommended by the CLSI. Briefly, antifungal susceptibility tests were performed for amphotericin B, robenidine (NCL812) and robenidine (NCL) analogs (NCL004, NCL020, NCL023, NCL024, NCL062, NCL094, NCL097, NCL110, NCL113, NCL114, NCL115, NCL135, NCL139, NCL180, NCL181, NCL195, NCL219, NCL220, NCL228, NCL247, NCL250, NCL259, NCL260, NCL263, NCL265, NCL269, NCL274) by standard broth microdilution method (CLSI) in RPMI 1640. Various concentrations (ranging from high to low) of the selected compounds were prepared in RPMI 1640 medium by double dilution in 96-well microtitre plates. Each well contained an inoculum of approximately 2×10^3 cells/mL. The wells without addition of drugs served as negative (no inoculum) and positive (inoculum only) growth controls. Microtitre plates were incubated at 35° C. for 24-48 hours. […] Antifungal MICs were determined for each isolate in duplicate; if the values obtained were different, the MIC test was repeated a third time.

Cryptococcus neoformans = test: CLSI broth microdilution MIC (Example 4)
Description: as §1

Row | Compound | Screen at 16 μg/mL [1] | MIC at 24-48 hours (Candida albicans; Candida albicans ATCC 90028) | MIC at 24-48 hours (Candida albicans; Candida albicans SA3) | MIC at 24-48 hours (Cryptococcus neoformans; Cryptococcus neoformans SA1) | MIC at 24-48 hours (Cryptococcus neoformans; Cryptococcus neoformans SA2) | MIC [1]
1 | Cl.N=C(NN=Cc1ccccc1Cl)NN=Cc1ccccc1Cl [NCL020] | Growth | >32 µg/mL | >32 µg/mL | >32 µg/mL | >32 µg/mL | 
2 | Cl.N=C(NN=CC1CCCCC1)NN=CC1CCCCC1 [NCL094] | Growth | >32 µg/mL | >32 µg/mL | >32 µg/mL | >32 µg/mL | 
3 | Cl.N=C(NN=Cc1ccc([N+](=O)[O-])cc1)NN=Cc1ccc([N+](=O)[O-])cc1 [NCL110] | Growth | >32 µg/mL | >32 µg/mL | >32 µg/mL | >32 µg/mL | 
4 | Cl.N=C(NN=Cc1cc(Cl)cc(Cl)c1)NN=Cc1cc(Cl)cc(Cl)c1 [NCL114] | Growth | >32 µg/mL | >32 µg/mL | >32 µg/mL | >32 µg/mL | 
5 | COc1cc(Br)c(C=NNC(=N)NN=Cc2cc(OC)c(OC)cc2Br)cc1OC.Cl [NCL135] | Growth | >32 µg/mL | >32 µg/mL | >32 µg/mL | >32 µg/mL | 
6 | Cl.N=C(NN=Cc1cnc2ccccc2c1)NN=Cc1cnc2ccccc2c1 [NCL139] | No growth | >32 µg/mL | >32 µg/mL | >32 µg/mL | >32 µg/mL | <0.5 µg/mL
7 | OCC(=NNc1cc(NN=C(CO)c2ccc(Cl)cc2)ncn1)c1ccc(Cl)cc1 [NCL180] | Growth | >32 µg/mL | >32 µg/mL | >32 µg/mL | >32 µg/mL | 
8 | Clc1ccc(C=NNc2cc(NN=Cc3ccc(Cl)cc3)ncn2)cc1 [NCL181] | Growth | >32 µg/mL | >32 µg/mL | >32 µg/mL | >32 µg/mL | 
9 | CCCCCCNC(=O)N(N=Cc1ccc(Cl)cc1)C(N)=NN=Cc1ccc(Cl)cc1 [NCL228] | No growth | >32 µg/mL | >32 µg/mL | >32 µg/mL | >32 µg/mL | 0.5 µg/mL and 1 µg/mL
10 | Nc1nc(N/N=C/c2cc(O)c(O)c(O)c2)cc(N/N=C/c2cc(O)c(O)c(O)c2)n1 [NCL247] | No growth | >32 µg/mL | >32 µg/mL | >32 µg/mL | >32 µg/mL | 2 µg/mL and 4 µg/mL
11 | N=C(N)NN=Cc1cccc2ccccc12 [NCL248] | Growth |  |  |  |  | 
12 | N=C(N)NN=CC=Cc1ccccc1 [NCL249] | Growth |  |  |  |  | 
13 | Clc1ccc(/C=N/CC/N=C/c2ccc(Cl)cc2)cc1 [NCL250] | Growth | >32 µg/mL | >32 µg/mL | >32 µg/mL | >32 µg/mL | 
14 | Clc1ccc(C=NCCCN=Cc2ccc(Cl)cc2)cc1 [NCL252] | Growth |  |  |  |  | 
15 | CN(C)c1ccc(/C=N/NC(=N)N)cc1 [NCL253] | Growth |  |  |  |  | 
16 | CCCCCC(=NNC(=N)N)c1ccc(Cl)cc1.Cl [NCL254] | No growth |  |  |  |  | 8 µg/mL
17 | Nc1nc(NN=Cc2ccc(-c3ccccc3)cc2)cc(NN=Cc2ccc(-c3ccccc3)cc2)n1 [NCL255] | Growth |  |  |  |  | 
18 | Nc1nc(NN=Cc2ccc(O)cc2O)cc(NN=Cc2ccc(O)cc2O)n1 [NCL256] | Growth |  |  |  |  | 
19 | Clc1ccc(CNCCCCNCc2ccc(Cl)cc2)cc1 [NCL258] | Growth |  |  |  |  | 

Row | Compound | Screen at 16 μg/mL [1] | MIC at 24-48 hours (Candida albicans; Candida albicans ATCC 90028) | MIC at 24-48 hours (Candida albicans; Candida albicans SA3) | MIC at 24-48 hours (Cryptococcus neoformans; Cryptococcus neoformans SA1) | MIC at 24-48 hours (Cryptococcus neoformans; Cryptococcus neoformans SA2) | MIC [1]
20 | Clc1ccc(CNCCNCc2ccc(Cl)cc2)cc1 [NCL260] | Growth | >32 µg/mL | >32 µg/mL | >32 µg/mL | >32 µg/mL | 
21 | Cl.N=C(N)NN=Cc1ccc2ccccc2c1 [NCL261] | Growth |  |  |  |  | 
22 | Nc1nc(NN=CCCc2ccccc2)cc(NN=CCCc2ccccc2)n1 [NCL262] | Growth |  |  |  |  | 
23 | Cl.N=C(N)N/N=C/c1ccc(C(F)(F)F)cc1F [NCL263] | Growth | >32 µg/mL | >32 µg/mL | >32 µg/mL | >32 µg/mL | 
24 | Nc1nc(NN=Cc2ccc3ccccc3c2)cc(NN=Cc2ccc3ccccc3c2)n1 [NCL264] | Growth |  |  |  |  | 
25 | N=C(N)NN=C(CCC1CCCC1)c1ccc(Cl)cc1 [NCL266] | No growth |  |  |  |  | 4 µg/mL (≈ 13.7 µM)
26 | CC(=NNC(=N)NN=C(C)c1c[nH]c2ccccc12)c1c[nH]c2ccccc12 [NCL268] | No growth |  |  |  |  | 4 µg/mL (≈ 10.8 µM)
27 | CC(=NNC(=N)N)c1c[nH]c2ccccc12 [NCL269] | Growth | >32 µg/mL | >32 µg/mL | >32 µg/mL | >32 µg/mL | 
28 | CCCCCC(=NNC(=N)NN=C(CCCCC)c1ccc(Cl)cc1)c1ccc(Cl)cc1 [NCL271] | No growth |  |  |  |  | 1 µg/mL (≈ 2.11 µM)
29 | CCCCCCCC(=NNC(=N)NN=C(CCCCCCC)c1ccc(Cl)cc1)c1ccc(Cl)cc1 [NCL272] | Growth |  |  |  |  | 
30 | CCOCC(=NNC(=N)NN=C(COCC)c1ccc(Cl)cc1)c1ccc(Cl)cc1 [NCL275] | Growth |  |  |  |  | 
31 | Cl.N=C(NN=Cc1cccc2nsnc12)NN=Cc1cccc2nsnc12 [NCL276] | Growth |  |  |  |  | 
32 | Cl.N=C(NN=Cc1ccc2nsnc2c1)NN=Cc1ccc2nsnc2c1 [NCL277] | Growth |  |  |  |  | 
33 | Cl.N=C(N)NN=Cc1cnc2ccccc2n1 [NCL278] | Growth |  |  |  |  | 
34 | Cl.N=C(N)NN=Cc1nc2ccccc2s1 [NCL279] | Growth |  |  |  |  | 
35 | Cl.N=C(N)NN=Cc1ccc2nsnc2c1 [NCL280] | Growth |  |  |  |  | 
36 | Cl.N=C(N)N/N=C/c1cccc2nsnc12 [NCL281] | Growth |  |  |  |  | 
37 | Cl.N=C(NN=Cc1ccc2ncccc2c1)NN=Cc1ccc2ncccc2c1 [NCL282] | No growth |  |  |  |  | 
38 | Cc1nc[nH]c1C=NNC(=N)N.Cl [NCL283] | Growth |  |  |  |  | 
